The source of these data is patent US10479792B2, “Compounds” (GlaxoSmithKline Intellectual Property Development Limited, priority 2015, dated 2019).

A word on the solubility: it is the dissolved amount per volume that the medium holds.

Data set [1] relates to Leishmania donovani. In words: Leishmania donovani intracellular assay (Assay 5). The data set is classed as cell-based. The following applies: THP-1, 96 h, eGFP amastigotes in THP-1 cells, 96 h incubation, read-out: pEC50 value against Leishmania donovani (converted). Summed up: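 PMA-differentiated (30 nM) THP-1 monocytes were infected with eGFP-expressing L. donovani amastigotes at an MOI of 10, then plated at 3000 cells/well in RPMI with 2% FBS. Cells were exposed for 96 h at 37° C to 11-point 1:3 dilutions from a 50 μM top. After fixation and DAPI staining, high-content imaging gave parasites per cell, % infected cells and total THP-1 count.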

In data set [2] the test system is THP-1 cells. In words: Leishmania donovani intracellular assay (Assay 5), THP-1 cytotoxicity. Particulars: human, 96 h incubation, read-out: cytotoxicity against THP-1 cells, pEC50 (converted). Type of data set: cell-based. The method, then: Assay 5. Leishmania donovani Intracellular Assay
Compounds were dispensed into black 384-well assay plates (Greiner) by acoustic dispensing (LabCyte ECHO). For potency determinations, eleven-point, one in three dilution curves were generated, with a top concentration of 50 μM. THP-1 human monocytes cells were dispensed in T225 tissue culture flasks and differentiated using 30 nM of PMA, after 24 hours they were infected overnight using Leishmania donovani expressing Green Fluorescent Protein (eGFP) amastigotes in the same T225 tissue culture flasks at a multiplicity of infection of 10. Next, any remaining free amastigotes were washed away with PBS and the infected THP-1 cells were harvested by trypsinisation. The infected cells were then plated into 384-well plates containing the compounds to be tested, at 3000 cells per well in RPMI media with 2% FBS and 25 mM Sodium bicarbonate. After 96 h incubation at 37° C. in presence of 5% CO2, the plates were fixed with 4% formaldehyde for 30 minutes, washed with PBS and stained with 0.1 mg/mL of DAPI for 30 minutes and washed again with PBS. The plates were imaged on a Perkin Elmer Opera high-content imaging system using a 20× air objective with two expositions, one for DAPI stain and other for eGFP. Images were analysed using the Acapella building blocks system (Perkin Elmer). The image analysis algorithm first identified the THP-1 nuclei followed by demarcation of the cytoplasm and identification of intracellular amastigotes. This algorithm reported mean number of parasites per THP-1 cell, the percentage of infected THP-1 cells and the total number of THP-1 cells.

Data set [3] is described as follows: Solubility assay, ChemiLuminescent Nitrogen Detection (CLND) (Assay 4). Type of data set: physicochemical. The following applies: phosphate buffered saline (PBS) pH 7.4, aqueous buffer, kinetic from dmso stock, PBS pH 7.4, from 10 mM DMSO stock, 1 h at room temperature. As for the experimental part:
Assay 4. Solubility Assay—ChemiLuminescent Nitrogen Detection (CLND) I. Compounds A 10 mM DMSO stock solution of the compound was prepared. Solvents and Buffers Organic solvents of HPLC grade were used. Ultra pure water (Milli-Q grade) was used. Buffers were prepared with ultra pure water and filtered using 0.45μ cameo filters. Aqueous Buffer Solution: Phosphate Buffer Saline (PBS) @ pH 7.4 was prepared from Sigma dry powder packs, P-3813. Each one was diluted to 1 liter with deionised water. The pH was checked before the solution was used II. Procedures. • a) DMSO concentration was measured. DMSO blanks and ondansetron and caffeine standards were added to the plate (column 12, A, B, C, & D for the blanks and E, F, G, & H for the standards). Plates were covered with foil. When the UV and CLND detectors baselines appeared to be stable, the CLND was zeroed. • b) Once DMSO concentration measurements were complete, a filtration plate was prepared from each parent plate by diluting 5 μl of the 10 mM DMSO stock solution to […] with pH7.4 PBS. • c) After the plates were prepared, they were covered with a plate lid and left to incubate for 1 h at room temperature. • d) Sample was filtered using MILLIPORE MultiScreen Solubility (MSSLBPC10) Filtration Plates, to NUNC V well plates. […]

The subject of data set [4] is RnH9c2 cells. In words: Trypanosoma cruzi intracellular assay (Assay 2), host cell cytotoxicity. Type of data set: cell-based. The following applies: rat, H9C2 cardiomyocytes infected with Trypanosoma cruzi, 72 h incubation, read-out: cytotoxicity against RnH9c2 cells, pEC50 (converted). The method, then:
Compounds were dispensed into black 384-well assay plates (Greiner) by acoustic dispensing (LabCyte ECHO). For potency determinations, eleven-point, one in three dilution curves were generated, with a top concentration of 50 μM. H9C2 rat cardiomyocytes cells were dispensed in T225 tissue culture flasks and after 4 hours they were infected during 18 hours with T. cruzi trypomastigotes in the same T225 tissue culture flasks at a multiplicity of infection of 1. Next, any remaining free trypomastigotes were washed away with PBS and the infected H9C2 cells were harvested by trypsinisation. The infected H9C2 cells were then plated into 384-well plates containing the compounds to be tested, at 2500 cells per well in DMEM media with 2% FBS, 1% Penicillin/Streptomicin, 2 mM L-Glutamine, 1 mM Na Pyruvate and 25 mM HEPES. After 72 h incubation at 37° C. in presence of 5% CO2, the plates were fixed and stained with 4% formaldehyde and 2 μM Draq5 for 3 hours at room temperature. The plates were imaged on a Perkin Elmer Opera high-content imaging system using a 20× air objective. Images were analyzed using the Acapella building blocks system (Perkin Elmer). The image analysis algorithm first identified the H9C2 nuclei followed by demarcation of the cytoplasm and identification of intracellular amastigotes. This algorithm reported mean number of parasites per H9C2 cell, the percentage of infected H9C2 cells and the total number of H9C2 cells.

Some results are limits rather than exact numbers.

Consider `COc1cccc(-c2cnc3nc(-c4cc(NC(=O)N5CCCC5)ccc4F)ccn23)n1.Cl` [Example 28, N-(4-fluoro-3-(3-(6-methoxypyridin-2-yl)imidazo[1,2-a]pyrimidin-7-yl)phenyl)pyrrolidine-1-carboxamide], for which the EC50 in data set [1] is 0.126 to 10 µM. In addition, in data set [2], the EC50 at 96 h was 12.6 to 50.1 µM. The same molecule returned a solubility at 1 h in data set [3] of less than 1 µM. Besides, the EC50 at 72 h in data set [4] is 7.94 µM.
